Assay results taken from patent US20260262643A1, “HERBICIDAL BENZOXAZINES” (FMC CORPORATION, priority 2022, published 2026).

What was measured:
barnyardgrass [1] = assay: Test C preemergence; assay type: in vivo, Echinochloa crusgalli; details: 0 to 100 scale (0 no effect, 100 complete control)
How it was run: (§1)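 Visual injury ratings on a 0–100 scale (100 = complete control) were made against untreated controls 10 days after treatment in the greenhouse. Compounds, formulated with surfactant in non-phytotoxic solvent, were sprayed on soil preemergence or onto one- to two-leaf plants 2–10 cm tall postemergence.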

pigweed, palmer [2] = assay: Test C preemergence; assay type: in vivo, Amaranthus palmeri; details: 0 to 100 scale (0 no effect, 100 complete control)
How it was run: as §1

corn [3] = assay: Test C preemergence; assay type: in vivo, Zea mays; details: 0 to 100 scale (0 no effect, 100 complete control)
How it was run: as §1

ryegrass, Italian [4] = assay: Test C postemergence; assay type: in vivo, Lolium multiflorum; details: 10 days
How it was run: as §1

ragweed [5] = assay: Test C preemergence; assay type: in vivo, Ambrosia artemisiifolia; details: 0 to 100 scale (0 no effect, 100 complete control)
How it was run: as §1

wheat [6] = assay: Test C preemergence; assay type: in vivo, Triticum aestivum; details: 0 to 100 scale (0 no effect, 100 complete control)
How it was run: as §1

ragweed [7] = assay: Test C postemergence; assay type: in vivo, Ambrosia artemisiifolia; details: 10 days
How it was run: as §1

blackgrass [8] = assay: Test C postemergence; assay type: in vivo, Alopecurus myosuroides; details: 10 days
How it was run: as §1

kochia [9] = assay: Test C preemergence; assay type: in vivo, Bassia scoparia; details: 0 to 100 scale (0 no effect, 100 complete control)
How it was run: as §1

barnyardgrass [10] = assay: Test D flooded paddy test; assay type: in vivo, Echinochloa crus-galli; details: 250 g ai/ha, applied to paddy water, visual rating after 13 to 14 days, scale 0 to 100 (0 no effect, 100 complete control)
How it was run: (§2)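 2-leaf plants; flood 3 cm above soil; compound dosed into paddy water; greenhouse 13–14 d; visual rating vs controls, 0–100 (100 = complete control); dash = not tested.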

oat, wild [11] = assay: Test C postemergence; assay type: in vivo, Avena fatua; details: 10 days
How it was run: as §1

wheat [12] = assay: Test C postemergence; assay type: in vivo, Triticum aestivum; details: 10 days
How it was run: as §1

galium = assay: Test C postemergence; assay type: in vivo, Galium aparine; details: 125 g ai/ha, postemergence, 10 days; 0 to 100 scale, 0 no effect, 100 complete control
How it was run: as §1

barnyardgrass [13] = assay: Test C postemergence; assay type: in vivo, Echinochloa crusgalli; details: 10 days
How it was run: as §1

corn [14] = assay: Test C postemergence; assay type: in vivo, Zea mays; details: 10 days
How it was run: as §1

green foxtail [15] = assay: Test C postemergence; assay type: in vivo, Setaria viridis; details: 10 days
How it was run: as §1

rice = assay: Test D flooded paddy test; assay type: in vivo, Oryza sativa; details: 250 g ai/ha, applied to paddy water, visual rating after 13 to 14 days, scale 0 to 100 (0 no effect, 100 complete control)
How it was run: as §2

ducksalad = assay: Test D flooded paddy test; assay type: in vivo, Heteranthera limosa; details: 250 g ai/ha, applied to paddy water, visual rating after 13 to 14 days, scale 0 to 100 (0 no effect, 100 complete control)
How it was run: as §2

ryegrass, Italian [16] = assay: Test C preemergence; assay type: in vivo, Lolium multiflorum; details: 0 to 100 scale (0 no effect, 100 complete control)
How it was run: as §1

horseweed = assay: Test C postemergence; assay type: in vivo, Erigeron canadensis; details: 10 days
How it was run: as §1

blackgrass [17] = assay: Test C preemergence; assay type: in vivo, Alopecurus myosuroides; details: 0 to 100 scale (0 no effect, 100 complete control)
How it was run: as §1

oat, wild [18] = assay: Test C preemergence; assay type: in vivo, Avena fatua; details: 0 to 100 scale (0 no effect, 100 complete control)
How it was run: as §1

sedge, umbrella = assay: Test D flooded paddy test; assay type: in vivo, Cyperus difformis; details: 250 g ai/ha, applied to paddy water, visual rating after 13 to 14 days, scale 0 to 100 (0 no effect, 100 complete control)
How it was run: as §2

soybean [19] = assay: Test C preemergence; assay type: in vivo, Glycine max; details: 0 to 100 scale (0 no effect, 100 complete control)
How it was run: as §1

green foxtail [20] = assay: Test C preemergence; assay type: in vivo, Setaria viridis; details: 0 to 100 scale (0 no effect, 100 complete control)
How it was run: as §1

soybean [21] = assay: Test C postemergence; assay type: in vivo, Glycine max; details: 10 days
How it was run: as §1

kochia [22] = assay: Test C postemergence; assay type: in vivo, Bassia scoparia; details: 10 days
How it was run: as §1

pigweed, palmer [23] = assay: Test C postemergence; assay type: in vivo, Amaranthus palmeri; details: 10 days
How it was run: as §1

[24] = Preemergence, 500 g ai/ha, visual rating after 10 days
[25] = Test C, preemergence, 125 g ai/ha
[26] = 125 g ai/ha, postemergence, 0 to 100 scale, 0 no effect, 100 complete control
[27] = Postemergence, 500 g ai/ha, visual 0 to 100 scale (0 no effect, 100 complete control)

Cc1cc(-n2cnc(C(C)C)n2)cc(C(=O)N2C[C@H](C)Oc3c(Cl)cccc32)c1F [Compound 223]
Plant response rating, Barnyardgrass (barnyardgrass [1]; [24]): 100
Barnyardgrass plant response rating (barnyardgrass [1]; [25]): 90
Plant response rating, Pigweed, Palmer (pigweed, palmer [2]; [24]): 100
Pigweed, Palmer plant response rating (pigweed, palmer [2]; [25]): 100
Plant response rating, Corn (corn [3]; [24]): 40
Corn plant response rating (corn [3]; [25]): 0
Plant response rating, Ryegrass, Italian (ryegrass, Italian [4]; [26]): 50
Plant response rating, Ryegrass, Italian (ryegrass, Italian [4]; [27]): 90
Plant response rating, Ragweed (ragweed [5]; [24]): 40
Ragweed plant response rating (ragweed [5]; [25]): 50
Plant response rating, Wheat (wheat [6]; [24]): 90
Wheat plant response rating (wheat [6]; [25]): 20
Plant response rating, Ragweed (ragweed [7]; [26]): 0
Plant response rating, Ragweed (ragweed [7]; [27]): 10
Plant response rating, Blackgrass (blackgrass [8]; [26]): 30
Plant response rating, Blackgrass (blackgrass [8]; [27]): 70
Plant response rating, Kochia (kochia [9]; [24]): 80
Kochia plant response rating (kochia [9]; [25]): 60
Plant response rating, Barnyardgrass (Flood) (barnyardgrass [10]): 10
Plant response rating, Oat, Wild (oat, wild [11]; [26]): 10
Plant response rating, Oat, Wild (oat, wild [11]; [27]): 30
Plant response rating, Wheat (wheat [12]; [26]): 10
Plant response rating, Wheat (wheat [12]; [27]): 30
Plant response rating, Galium (galium): 100
Plant response rating, Barnyardgrass (barnyardgrass [13]; [26]): 20
Plant response rating, Barnyardgrass (barnyardgrass [13]; [27]): 40
Plant response rating, Corn (corn [14]; [26]): 20
Plant response rating, Corn (corn [14]; [27]): 80
Plant response rating, Foxtail, Green (green foxtail [15]; [26]): 30
Plant response rating, Foxtail, Green (green foxtail [15]; [27]): 60
Plant response rating, Rice (Flood) (rice): 10
Plant response rating, Ducksalad (Flood) (ducksalad): 80
Plant response rating, Ryegrass, Italian (ryegrass, Italian [16]; [24]): 90
Ryegrass, Italian plant response rating (ryegrass, Italian [16]; [25]): 80
Plant response rating, Horseweed (horseweed; [26]): 20
Plant response rating, Horseweed (horseweed; [27]): 30
Plant response rating, Blackgrass (blackgrass [17]; [24]): 90
Blackgrass plant response rating (blackgrass [17]; [25]): 40
Plant response rating, Oat, Wild (oat, wild [18]; [24]): 70
Oat, Wild plant response rating (oat, wild [18]; [25]): 50
Plant response rating, Sedge, Umbrella (Flood) (sedge, umbrella): 95
Plant response rating, Soybean (soybean [19]; [24]): 70
Soybean plant response rating (soybean [19]; [25]): 10
Plant response rating, Foxtail, Green (green foxtail [20]; [24]): 100
Foxtail, Green plant response rating (green foxtail [20]; [25]): 100
Plant response rating, Soybean (soybean [21]; [26]): 100
Plant response rating, Soybean (soybean [21]; [27]): 100
Plant response rating, Kochia (kochia [22]; [26]): 90
Plant response rating, Kochia (kochia [22]; [27]): 90
Plant response rating, Pigweed, Palmer (pigweed, palmer [23]; [26]): 80
Plant response rating, Pigweed, Palmer (pigweed, palmer [23]; [27]): 90
